Results taken from patent US20090047306A1, “ADJUVANT COMPOSITIONS” (priority 2004, published 2009).

Experiments:
[1] = tested on: glycosidase; settings: cited from earlier work
[2] = tested on: α-mannosidase; settings: cited from earlier work
[3] = tested on: OVA-specific IgG1 and IgG2a; assay: OVA-specific IgG1 and IgG2a plasma antibody titres (ELISA) after immunization with OVA/alum with or without alkaloid; type: in vivo, mice (BALB/c)
Method: Alhydrogel (alum; purchased from Superfos BioSector a/s, Vedbaek, Denmark) was mixed with a predetermined quantity of highly purified ovalbumin (OVA; Worthington Biochemical Corporation, Lakewood, N.J.) with or without 3,7-diepi-casuarine.
(§1) All mice (BALB/c) were immunized subcutaneously into the foodpad with 100 μg OVA in 50 μl phosphate-buffered saline (PBS) mixed with alum and either PBS (control) or 3,7-diepi-casuarine (50 μg in PBS). Boosting inoculations were performed in the same fashion 2 weeks later, into the contralateral footpad.
Blood samples (tail bleeds) were taken 3 weeks after the primary inoculation. Enzyme-linked immunosorbent assays (ELISA) were performed as described in Brewer et al. (1999) J Immunol 163:6448-54 to detect OVA-specific IgG1 and IgG2a in plasma. Results were expressed as end-point dilutions where the end-point is determined as the final plasma dilution, which yields a higher absorbance than a negative control plasma sample, included in the assay.

[4] = tested on: Murine interferon-γ (IFN-γ); assay: IFN-γ production by spleen cells of inoculated mice re-stimulated with OVA in vitro (ELISA); type: cell-based, mice (BALB/c); settings: cells from mice inoculated with alum/OVA plus 50 μg compound vs alum/OVA alone (control); FIG. 2
Method: as §1
The mouse spleen was removed aseptically and placed in a sterile petri dish containing 5 mls of complete medium (RPMI, 1% L-Glutamine, 1% Penicillin/Streptomycin and 10% foetal calf serum). Cells suspensions were prepared by using the end of a syringe and grinding the spleen through a wire mesh. The cell suspension was then centrifuged at 1000 rpm for 5 minutes. To remove the erythrocytes, the cell pellet was resuspended in Boyle's solution (Tris 0.17M & Ammonium Chloride 0.16M) and centrifuged again for 5 minutes. The pellet was then washed in medium a further two times, then resuspended in 3 ml medium. A cell count was then carried out. Stimulation assays were performed in triplicate in U-bottomed 96-well plates (Corning Costar, N.Y.) with OVA (at 5 μg/ml, 100 μg/ml and 500 μg/ml).
Murine interferon-γ (IFN-γ) was assayed by ELISA using paired antibodies according to the manufacturer's instructions.

[5] = tested on: influenza vaccine-specific IgG, IgG1 and IgG2a; set-up: species or system Balb/c mice; settings: mouse, in vivo
[6] = tested on: α-glucosidase; settings: cited from earlier work
[7] = tested on: alum-induced Th1/Th2 response; assay: Effect of exogenous rIL-12 on alum-induced Th1/Th2 responses (Example 1 repeated, lymph node cultures); type: in vivo, mice (BALB/c); settings: 1 μg rIL-12 in place of 3,7-diepi-casuarine; IFN-γ on lymph node cultures
Method: The experiment described in Example 1 (above) was repeated, but with the 3,7-diepi-casuarine replaced with 1 μg of rIL-12 (R&D Systems, Oxford, UK). Proliferative response assays of IFN-γ were performed on lymph node cultures rather than spleen cells (as described in Pollock et al. (2003) Immunology 108:137-143).

In the case of O[C@H]1[C@H]2[C@@H](O)CCN2C[C@H]1O [compound 8], the “glycosidase inhibitory activity relative to swainsonine” value [1] is given as “much weaker inhibitory activity”.

In the case of O[C@H]1[C@H]2[C@H](O)CCN2C[C@H]1O [compound 7, (1S, 2R, 7R, 7aR)-1,2,7-trihydroxy], the “glycosidase inhibitory activity relative to swainsonine” value [1] is given as “much weaker inhibitory activity”.

For O[C@H]1[C@H]2[C@H](O)CCCN2C[C@H]1O [swainsonine], the “inhibition of α-mannosidase” value [2] is listed as “potent and specific inhibitor”.

With OC[C@H]1[C@@H](O)[C@H](O)[C@H]2[C@@H](O)[C@@H](O)CN21 [3,7-diepi-casuarine, (1R,2R,3S,6S,7R,7aR)-3-(hydroxymethyl)-1,2,6,7-tetrahydroxypyrrolizidine] the “shift of the alum-induced Th2 response towards Th1” value ([3]; 50 μg in admixture with alum/OVA, vs alum/OVA alone) was “pronounced shift towards a Th1 response”, the “antigen-specific (OVA) IgG2a in plasma” value ([3]; BALB/c mice, s.c. footpad, 100 μg OVA with alum, with or without 50 μg 3,7-diepi-casuarine, bleed at 3 weeks, FIG. 1b) was “significant increase” and the “IFN-γ produced by spleen cells re-stimulated with antigen in vitro” value [4] was “significantly greater amount”. For the same molecule, the adjuvant activity [5] was “exhibits adjuvant activity”, the “dose response of the antibody responses” value [5] was “No dose response” and the “influenza vaccine-specific IgG1 response vs control group vaccinated with influenza vaccine alone” value [5] was “statistically significant increased”. For the same molecule, the “influenza vaccine-specific IgG2a response vs control group A” value [5] was “No differences”, the “influenza vaccine-specific IgGtotal response vs control group A” value [5] was “statistically significant increased” and the “skewing of the Th1/Th2 response from Th2 towards Th1” value [5] was “No skewing”.

In the case of O[C@H]1[C@H](O)[C@@H](O)CN2CC[C@H](O)[C@H]12 [castanospermine], the “inhibition of α-glucosidase” value [6] is listed as “potent”.

B1: rIL-12: rIL-12 (R&D Systems, Oxford, UK), recombinant interleukin-12 (protein, UniProt P29459 23-219; P29460 23-328, looked up)
Interleukin-12 subunit alpha: RNLPVATPDPGMFPCLHHSQNLLRAVSNMLQKARQTLEFYPCTSEEIDHEDITKDKTSTVEACLPLELTKNESCLNSRETSFITNGSCLASRKTSFMMALCLSSIYEDLKMYQVEFKTMNAKLLMDPKRQIFLDQNMLAVIDELMQALNFNSETVPQKSSLEEPDFYKTKIKLCILLHAFRIRAVTIDRVMSYLNAS
Interleukin-12 subunit beta: IWELKKDVYVVELDWYPDAPGEMVVLTCDTPEEDGITWTLDQSSEVLGSGKTLTIQVKEFGDAGQYTCHKGGEVLSHSLLLLHKKEDGIWSTDILKDQKEPKNKTFLRCEAKNYSGRFTCWWLTTISTDLTFSVKSSRGSSDPQGVTCGAATLSAERVRGDNKEYEYSVECQEDSACPAAEESLPIEVMVDAVHKLKYENYTSSFFIRDIIKPDPPKNLQLKPLKNSRQVEVSWEYPDTWSTPHSYFSLTFCVQVQGKSKREKKDRVFTDKTSATVICRKNASISVRAQDRYYSSSWSEWASVPCS
For B1, the “effect on the alum-induced Th1/Th2 response” value [7] was “comparable effect to 3,7-diepi-casuarine”.
